The test system of the assay is Escherichia coli strain ATCC25922. Nature of the assay: standard microdilution assay to determine minimum inhibitory concentrations (MICs). It is filed as cell-based. The following applies: for MIC: Escherichia coli; for E. coli ATCC25922 MIC: Escherichia coli strain ATCC25922, microdilution. As to the method: Minimum inhibitory concentrations (MICs) are determined by the microdilution method, typically in a final volume of 100 microliters, according to protocols outlined by The Clinical and Laboratory Standards Institute [CLSI; formerly the National Committee for Clinical Laboratory Standards (NCCLS)]. See CLSI: Methods for dilution antimicrobial susceptibility tests for bacteria that grow aerobically; approved standard-fifth edition. Wayne, Pa.: NCCLS; 2000. The assays can be also be performed in microtiter trays according to conventional methodologies as published by the CLSI. See CLSI. Methods for Dilution Antimicrobial Susceptibility Tests for Bacteria That Grow Aerobically; Approved Standard—Seventh Edition. CLSI Document M7-A7 [ISBN 1-56238-587-9] CLSI, 940 West Valley Road, Suite 1400, Wayne Pa. 19087-1898 USA, 2006).
The compounds of the present invention were tested for antimicrobial activity. The compounds were run against Escherichia coli strain ATCC25922 using a standard microdilution assay to determine minimum inhibitory concentrations (MICs). […] A “N/A” means that data is unavailable. It will be recognized by one skilled in the art that the compounds can be assessed against other bacterial organisms and that the presentation of data for activity against Escherichia coli is illustrative and in no way is intended to limit the scope of the present invention. The compounds of the present invention can be assayed against a range of other microorganisms depending upon the performance activity desired to be gathered. Furthermore, the “+”, “−”, and “N/A” representation and the selection of a cutoff value of 16 micrograms/ml is also illustrative and in no way is intended to limit the scope of the present invention.
For orientation: Dilution methods test growth across graded concentrations, often in twofold steps.

Where [1] appears, read: ATCC25922, Escherichia coli strain ATCC25922, microdilution, read-out: E. coli ATCC25922 MIC.

Molecules are shown by their SMILES. Where a name gives a salt, the structure may show the parent alone. Read-outs that look alike come from different tables or passages of the source.

Results on 36 compounds are retold here after US9193731B2, “Antimicrobial compounds and methods of making and using the same” (Melinta Therapeutics, Inc., priority 2009, dated 2015).

Broadly, the MIC is the lowest concentration that inhibits growth of the organism.

For `NCCCCCN1CCN(c2cn3cc(-c4ccc(Br)cc4)[nH]c3nc2=O)CC1` [Compound 883], under setting [1], the MIC is > 16 µg/mL.

Regarding `NCCCNCc1ccc(-n2cc3cc(-c4ccc(S(=O)(=O)N(CC5CC5)C5CCNCC5)cc4)[nH]c3nc2=O)cc1` [Compound 711], the minimal inhibitory concentration (MIC) under setting [1] is < 16 µg/mL.

As to `N=C(N)NCCCNCc1ccc(-n2cc3cc(-c4cc(OC(F)(F)F)cc(S(=O)(=O)NCCN)c4)[nH]c3nc2=O)cc1` [Compound 2059a], the “E. coli ATCC25922 MIC” value is listed as “+ (a “+” indicates that the compound has an MIC value of 16 micrograms/ml or less)”.

Turning to `CC(C)(CN)COc1cccc(-c2cc3cn(-c4ccc(CNCCCNC(=N)N)c(F)c4)c(=O)nc3[nH]2)c1` [Compound 1361], the “E. coli ATCC25922 MIC” value is listed as “+ (a “+” indicates that the compound has an MIC value of 16 micrograms/ml or less)”.

Turning to `N=C(N)NCCCNCc1ccc(-n2cc3cc(-c4ccc(S(=O)(=O)N(CC5CC5)C5CCNCC5)cc4)[nH]c3nc2=O)cc1` [Compound 728], under setting [1], the MIC is < 16 µg/mL.

Turning to `CN(C)C(=O)c1cc(-c2cc3cn(-c4ccc(CNCCCN)cc4)c(=O)nc3[nH]2)cc(N2CCNCC2)c1` [Compound 796], the MIC under setting [1] was < 16 µg/mL.

For `CN1CCN(CCCN(C2CCNCC2)S(=O)(=O)c2ccc(-c3cc4cn(-c5ccc(CNCCCNC(=N)N)cc5)c(=O)nc4[nH]3)cc2)CC1` [Compound 899], the “E. coli ATCC25922 MIC” value is “+ (a “+” indicates that the compound has an MIC value of 16 micrograms/ml or less)”.

Take `NCCCNCc1ccc(-n2cc3cc(CCC(=O)N4CC[C@H](F)C4)[nH]c3nc2=O)cc1` [Compound 298]: under setting [1], the MIC is > 16 µg/mL.

Consider `NCCCCN1CC=C(n2cc3cc(-c4ccc(F)cc4)[nH]c3nc2=O)CC1` [Compound 511], for which the MIC under setting [1] is > 16 µg/mL.

Regarding `N=C(N)NCCCNCc1ccc(-n2cc3cc(-c4ccc(S(=O)(=O)N5CC(N)C5)cc4)[nH]c3nc2=O)cc1` [Compound 1459], the “E. coli ATCC25922 MIC” value was “+ (a “+” indicates that the compound has an MIC value of 16 micrograms/ml or less)”.

On to `CC(CCN)Oc1cccc(-c2cc3cn(-c4ccc(CNCCCNC(=N)N)cc4)c(=O)nc3[nH]2)c1` (stereo not drawn) [Compound 1414], for which the “E. coli ATCC25922 MIC” value was “+ (a “+” indicates that the compound has an MIC value of 16 micrograms/ml or less)”.

For `NCCCc1cccc(-c2cc3cn(-c4ccc(C(N)=O)cc4)c(=O)nc3[nH]2)c1` [Compound 2056a], the MIC under setting [1] is > 16 µg/mL.

On to `N=C(N)NCCCNCc1ccc(-n2cc3cc(-c4cccc(C(CCCN)C(F)(F)F)c4)[nH]c3nc2=O)cc1` (stereo not drawn) [Compound 2075a], for which the “E. coli ATCC25922 MIC” value is on record as “+ (a “+” indicates that the compound has an MIC value of 16 micrograms/ml or less)”.

As for `N=C(N)NCCCOCc1ccc(-c2cn3cc(-c4ccc(C(=O)NC5CCNCC5)cc4)[nH]c3nc2=O)cc1` [Compound 928], the “E. coli ATCC25922 MIC” value was “+ (a “+” indicates that the compound has an MIC value of 16 micrograms/ml or less)”.

Regarding `CNCc1ccc(-n2cc3cc(-c4ccc(S(=O)(=O)N(CCCC5CCCC5)C5CCNCC5)cc4)[nH]c3nc2=O)cc1` [Compound 947], the MIC under setting [1] is > 16 µg/mL.

As for `N=C(N)NCCCNCc1ccc(-n2cc3cc(-c4ccc(S(=O)(=O)N(Cc5cc(OC(F)(F)F)ccc5F)C5CCOCC5)cc4)[nH]c3nc2=O)cc1` [Compound 879], the “E. coli ATCC25922 MIC” value was “+ (a “+” indicates that the compound has an MIC value of 16 micrograms/ml or less)”.

On to `CN(C)Cc1ccc(-n2cc3cc(-c4ccc(S(=O)(=O)N(CCCN5CCCCC5)C5CCNCC5)cc4)[nH]c3nc2=O)cc1` [Compound 987], for which the “E. coli ATCC25922 MIC” value was “− (a “−” indicates that the compound has an MIC value greater than 16 micrograms/ml)”.

Regarding `Cn1cncc1-c1cc2cn(-c3ccc(CN(CCCN)CCCN)cc3)c(=O)nc2[nH]1` [Compound 184], the MIC under setting [1] is < 16 µg/mL.

Take `CC1CCCCN1CCCN(C1CCNCC1)S(=O)(=O)c1ccc(-c2cc3cn(-c4ccc(CN)cc4)c(=O)nc3[nH]2)cc1` (stereo not drawn) [Compound 1051]: under setting [1], the MIC is > 16 µg/mL.

With `O=C(NC1CCNCC1)c1ccc(-c2cc3cn(-c4ccc(CNCCCF)c(F)c4)c(=O)nc3[nH]2)c(F)c1` [Compound 280], the minimum inhibitory concentration (MIC) under setting [1] was > 16 µg/mL.

Consider `CC(C)(CN)COc1cccc(-c2cc3cn(-c4ccc(CNCCCNC(=N)N)cc4)c(=O)nc3[nH]2)c1` [Compound 1327], for which the “E. coli ATCC25922 MIC” value is “+ (a “+” indicates that the compound has an MIC value of 16 micrograms/ml or less)”.

As to `NCCCCOc1ccc(-c2cn3cc(-c4ccc(C(=O)NC5CCNCC5)cc4)[nH]c3nc2=O)cc1` [Compound 829], the MIC under setting [1] was > 16 µg/mL.

Take `N=C(N)NC1CCN(Cc2ccc(-n3cc4cc(-c5ccc(S(=O)(=O)N(Cc6ccncc6)C6CCNCC6)cc5)[nH]c4nc3=O)cc2)C1` (stereo not drawn) [Compound 1178]: the “E. coli ATCC25922 MIC” value is recorded as “+ (a “+” indicates that the compound has an MIC value of 16 micrograms/ml or less)”.

For the compound `NCCCNCc1ccc(-c2cn3c(nc2=O)[nH]c2ccccc23)cc1` [Compound 601, 3-{4-[(3-Amino-propylamino)-methyl]-phenyl}-10H-benzo[4,5]imidazo[1,2-a]pyrimidin-2-one hydrochloride salt], the MIC (ATCC25922, read-out: E. coli ATCC25922 MIC) was > 16 µg/mL.

`NCc1ccc(-n2cc3cc(-c4cccc(OCCO)c4)[nH]c3nc2=O)cc1` [Compound 1100]: the MIC under setting [1] is > 16 µg/mL.

In the case of `CNCc1ccc(-n2cc3cc(-c4ccc(S(=O)(=O)N(CC5COc6ccccc6O5)C5CCNCC5)cc4)[nH]c3nc2=O)cc1` (stereo not drawn) [Compound 968], the “E. coli ATCC25922 MIC” value is listed as “− (a “−” indicates that the compound has an MIC value greater than 16 micrograms/ml)”.

For the compound `NCCc1c[nH]c2cc(-n3cc4cc(CCS(=O)(=O)C5CCNCC5)[nH]c4nc3=O)ccc12` [Compound 1278], the MIC under setting [1] was > 16 µg/mL.

With `N=C(N)NCCCNCc1ccc(-n2cc3cc(-c4cccc(S(=O)(=O)N(CCn5ccnc5)C5CCNCC5)c4)[nH]c3nc2=O)cc1` [Compound 1159], the MIC under setting [1] was < 16 µg/mL.

Regarding `COCCOCCN(C1CCNCC1)S(=O)(=O)c1cccc(-c2cc3cn(-c4ccc(CN)cc4)c(=O)nc3[nH]2)c1` [Compound 1158], under setting [1], the MIC is > 16 µg/mL.

Turning to `NCCCNCc1ccc(-n2cc3cc(-c4ccc([C@H]5OC(=O)N[C@@H]5CO)cc4)[nH]c3nc2=O)cc1` [Compound 939], the MIC under setting [1] is > 16 µg/mL.

Regarding `NC(N)=NCCCNCc1ccc(-n2cc3cc(-c4cccc(S(=O)(=O)N(CCN5CCCC5)C5CCNCC5)c4)[nH]c3nc2=O)cc1` [Compound 1186], the “E. coli ATCC25922 MIC” value is listed as “+ (a “+” indicates that the compound has an MIC value of 16 micrograms/ml or less)”.

For the compound `CC(=O)NCCOc1cccc(-c2cc3cn(-c4ccc(CN)cc4)c(=O)nc3[nH]2)c1` [Compound 1143], under setting [1], the MIC is > 16 µg/mL.

Consider `COCCOCCc1cc(OCC(F)CN)cc(-c2cc3cn(-c4ccc(CNCCCNC(=N)N)cc4)c(=O)nc3[nH]2)c1` (stereo not drawn) [Compound 2035a], for which the “E. coli ATCC25922 MIC” value was “− (a “−” indicates that the compound has an MIC value greater than 16 micrograms/ml)”.

As for `NCc1ccc(-n2cc3cc(-c4ccc(S(=O)(=O)N(CCCN5CCCC(O)C5)C5CCNCC5)cc4)[nH]c3nc2=O)cc1` (stereo not drawn) [Compound 1092], the “E. coli ATCC25922 MIC” value is “− (a “−” indicates that the compound has an MIC value greater than 16 micrograms/ml)”.

Take `NCCCc1c[nH]c2cc(-n3cc4cc(CCS(=O)(=O)C5CCNCC5)[nH]c4nc3=O)ccc12` [Compound 1282]: the minimal inhibitory concentration (MIC) under setting [1] was > 16 µg/mL.

In the case of `N=C(N)NCCCNCc1ccc(-n2cc3cc(CCS(=O)(=O)N(CCCc4ccccc4F)C4CCNCC4)[nH]c3nc2=O)cc1` [Compound 992], the “E. coli ATCC25922 MIC” value is reported as “+ (a “+” indicates that the compound has an MIC value of 16 micrograms/ml or less)”.
